# Experimental data as given in ChEMBL document CHEMBL1201862, “PubChem BioAssay data set” (2004).
# Calls of active or inactive are those of the source.
# Assays:
# [1] = biological target: T1, Small ubiquitin-related modifier 1 (Homo sapiens, UniProt P63165); assay: inhibitors of SUMO1 peptide binding, dose response, biochemical, fluorescence polarization, uHTS hits (AID 624382); type: functional; settings: read-out: IC50_Mean
# [2] = biological target: T1, Small ubiquitin-related modifier 1; assay: inhibitors of SUMO1 partner interactions, dose response, biochemical, FRET (AID 624383); type: functional; settings: read-out: IC50_Mean
# Albumin = Albumin (Bos taurus, UniProt P02769); assay: Counterscreen for inhibitors of T-cell receptor (TCR)-CD3 interaction: Fluorescence-based biochemical high throughput dose response assay to identify inhibitors of T-cell receptor (TCR)-CD3 interaction using a TAMRA-labeled BSA probe.; type: functional
# [3] = biological target: Induced myeloid leukemia cell differentiation protein Mcl-1 (Homo sapiens, UniProt Q07820); type: functional
# Chain of Induced myeloid leukemia cell differentiation protein Mcl-1 (Q07820 whole entry): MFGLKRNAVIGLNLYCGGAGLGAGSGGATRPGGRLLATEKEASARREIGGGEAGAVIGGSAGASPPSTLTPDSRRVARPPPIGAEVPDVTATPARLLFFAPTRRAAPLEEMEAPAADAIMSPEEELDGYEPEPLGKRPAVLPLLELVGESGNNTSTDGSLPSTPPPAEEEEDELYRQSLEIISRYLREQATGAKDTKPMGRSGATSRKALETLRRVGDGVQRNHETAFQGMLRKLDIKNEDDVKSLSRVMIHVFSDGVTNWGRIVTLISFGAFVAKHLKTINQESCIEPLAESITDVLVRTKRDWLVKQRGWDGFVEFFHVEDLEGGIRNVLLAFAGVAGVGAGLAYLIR
# NS3 = NS3 (Hepatitis C virus, UniProt A3EZJ3); assay: PubChem AID 2173; set-up: species or system Hepacivirus hominis
# [4] = biological target: DNA (cytosine-5)-methyltransferase 1 (Homo sapiens, UniProt P26358); assay: DNMT1 methyltransferase inhibitors, confirmation, biochemical, fluorescent molecular beacon (AID 602386); type: functional
# Chain of DNA (cytosine-5)-methyltransferase 1 (P26358 whole entry): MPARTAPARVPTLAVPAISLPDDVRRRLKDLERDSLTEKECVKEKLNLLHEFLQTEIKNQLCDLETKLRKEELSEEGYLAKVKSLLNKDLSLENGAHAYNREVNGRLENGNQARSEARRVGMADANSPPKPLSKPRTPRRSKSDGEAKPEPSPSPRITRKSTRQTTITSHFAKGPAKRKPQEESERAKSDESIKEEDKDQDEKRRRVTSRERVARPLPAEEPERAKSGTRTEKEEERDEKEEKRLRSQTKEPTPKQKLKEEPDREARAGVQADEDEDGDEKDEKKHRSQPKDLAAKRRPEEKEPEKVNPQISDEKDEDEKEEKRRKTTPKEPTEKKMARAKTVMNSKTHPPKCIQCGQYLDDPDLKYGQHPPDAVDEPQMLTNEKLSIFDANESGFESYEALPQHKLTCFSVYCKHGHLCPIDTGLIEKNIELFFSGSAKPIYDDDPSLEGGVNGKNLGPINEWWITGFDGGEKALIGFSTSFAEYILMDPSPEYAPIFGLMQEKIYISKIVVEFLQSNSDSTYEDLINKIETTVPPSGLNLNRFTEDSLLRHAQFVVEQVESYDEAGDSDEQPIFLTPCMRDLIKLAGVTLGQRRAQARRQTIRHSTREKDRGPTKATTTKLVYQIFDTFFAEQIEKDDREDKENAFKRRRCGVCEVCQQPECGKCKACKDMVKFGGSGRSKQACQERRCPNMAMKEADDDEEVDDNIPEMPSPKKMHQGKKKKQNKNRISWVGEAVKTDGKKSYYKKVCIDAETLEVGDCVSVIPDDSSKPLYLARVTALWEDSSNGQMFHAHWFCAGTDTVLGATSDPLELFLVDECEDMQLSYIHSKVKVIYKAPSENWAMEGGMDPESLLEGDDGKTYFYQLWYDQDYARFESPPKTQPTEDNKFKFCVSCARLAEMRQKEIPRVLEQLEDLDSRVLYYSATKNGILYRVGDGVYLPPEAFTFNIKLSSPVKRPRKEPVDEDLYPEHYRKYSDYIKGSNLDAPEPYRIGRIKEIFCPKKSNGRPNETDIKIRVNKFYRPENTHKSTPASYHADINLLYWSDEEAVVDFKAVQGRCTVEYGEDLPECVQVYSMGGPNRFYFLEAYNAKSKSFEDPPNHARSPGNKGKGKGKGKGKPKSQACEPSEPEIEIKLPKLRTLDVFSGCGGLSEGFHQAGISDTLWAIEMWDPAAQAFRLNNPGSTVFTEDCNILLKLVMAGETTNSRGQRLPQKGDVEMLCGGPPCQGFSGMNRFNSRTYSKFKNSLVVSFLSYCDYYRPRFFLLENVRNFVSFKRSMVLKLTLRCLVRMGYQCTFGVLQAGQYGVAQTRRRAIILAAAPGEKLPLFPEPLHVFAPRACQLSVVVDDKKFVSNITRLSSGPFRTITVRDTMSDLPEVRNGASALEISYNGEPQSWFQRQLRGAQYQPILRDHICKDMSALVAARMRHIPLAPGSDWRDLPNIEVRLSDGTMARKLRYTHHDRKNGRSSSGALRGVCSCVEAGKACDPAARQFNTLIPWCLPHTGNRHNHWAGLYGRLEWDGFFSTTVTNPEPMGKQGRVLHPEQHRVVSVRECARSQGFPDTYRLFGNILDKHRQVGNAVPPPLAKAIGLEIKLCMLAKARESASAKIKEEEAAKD
# [5] = biological target: Potassium voltage-gated channel subfamily KQT member 2 (Rattus norvegicus, UniProt O88943); assay: retigabine-insensitive KCNQ2 potentiators, concentration-response, dose response, cell-based, retigabine-insensitive compounds (AID 2654); type: functional
# Chain of Potassium voltage-gated channel subfamily KQT member 2 (O88943 whole entry): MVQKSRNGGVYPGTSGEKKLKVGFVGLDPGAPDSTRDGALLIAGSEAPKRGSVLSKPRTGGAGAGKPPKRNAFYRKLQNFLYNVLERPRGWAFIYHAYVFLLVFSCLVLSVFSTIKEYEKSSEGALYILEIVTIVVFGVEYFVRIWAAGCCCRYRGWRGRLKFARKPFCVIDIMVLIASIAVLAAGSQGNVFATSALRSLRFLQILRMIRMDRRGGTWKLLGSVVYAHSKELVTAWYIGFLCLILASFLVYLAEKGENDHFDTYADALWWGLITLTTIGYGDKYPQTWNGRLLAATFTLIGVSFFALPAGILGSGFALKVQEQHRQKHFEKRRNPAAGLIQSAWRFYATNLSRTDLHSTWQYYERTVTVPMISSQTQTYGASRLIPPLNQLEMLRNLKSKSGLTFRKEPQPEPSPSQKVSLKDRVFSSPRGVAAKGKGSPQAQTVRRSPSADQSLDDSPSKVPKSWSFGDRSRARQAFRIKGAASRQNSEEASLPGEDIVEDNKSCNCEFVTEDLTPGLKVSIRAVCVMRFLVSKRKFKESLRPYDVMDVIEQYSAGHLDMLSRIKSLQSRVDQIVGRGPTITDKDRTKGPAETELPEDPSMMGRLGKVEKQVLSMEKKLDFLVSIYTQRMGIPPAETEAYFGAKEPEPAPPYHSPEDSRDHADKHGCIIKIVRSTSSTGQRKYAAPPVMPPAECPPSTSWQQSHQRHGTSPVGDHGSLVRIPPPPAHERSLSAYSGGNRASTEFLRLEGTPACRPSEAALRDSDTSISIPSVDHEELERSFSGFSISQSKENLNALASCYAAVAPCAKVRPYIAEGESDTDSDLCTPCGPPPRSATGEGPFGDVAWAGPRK
# [6] = biological target: T2, Voltage-gated N-type calcium channel alpha-1B subunit/Amyloid beta A4 precursor protein-binding family A member 1 (Homo sapiens, UniProt Q00975+Q02410); assay: disruptors of Mint-PDZ/N-type channel peptide interaction – biochemical, HTRF, SAR follow-up (AID 2489); type: functional
# [7] = biological target: T2, Voltage-gated N-type calcium channel alpha-1B subunit/Amyloid beta A4 precursor protein-binding family A member 1; assay: disruptors of Mint-PDZ/N-type channel peptide interaction – biochemical, HTRF, set 2, SAR follow-up (AID 434980); type: functional
# Hexokinase HKDC1 = biological target: T3, Hexokinase HKDC1 (Homo sapiens, UniProt Q2TB90); assay: HKDC1 hexokinase inhibitors, dose response, biochemical, W721R variant (AID 504729); type: functional
# T3 sequence (Q2TB90 whole entry): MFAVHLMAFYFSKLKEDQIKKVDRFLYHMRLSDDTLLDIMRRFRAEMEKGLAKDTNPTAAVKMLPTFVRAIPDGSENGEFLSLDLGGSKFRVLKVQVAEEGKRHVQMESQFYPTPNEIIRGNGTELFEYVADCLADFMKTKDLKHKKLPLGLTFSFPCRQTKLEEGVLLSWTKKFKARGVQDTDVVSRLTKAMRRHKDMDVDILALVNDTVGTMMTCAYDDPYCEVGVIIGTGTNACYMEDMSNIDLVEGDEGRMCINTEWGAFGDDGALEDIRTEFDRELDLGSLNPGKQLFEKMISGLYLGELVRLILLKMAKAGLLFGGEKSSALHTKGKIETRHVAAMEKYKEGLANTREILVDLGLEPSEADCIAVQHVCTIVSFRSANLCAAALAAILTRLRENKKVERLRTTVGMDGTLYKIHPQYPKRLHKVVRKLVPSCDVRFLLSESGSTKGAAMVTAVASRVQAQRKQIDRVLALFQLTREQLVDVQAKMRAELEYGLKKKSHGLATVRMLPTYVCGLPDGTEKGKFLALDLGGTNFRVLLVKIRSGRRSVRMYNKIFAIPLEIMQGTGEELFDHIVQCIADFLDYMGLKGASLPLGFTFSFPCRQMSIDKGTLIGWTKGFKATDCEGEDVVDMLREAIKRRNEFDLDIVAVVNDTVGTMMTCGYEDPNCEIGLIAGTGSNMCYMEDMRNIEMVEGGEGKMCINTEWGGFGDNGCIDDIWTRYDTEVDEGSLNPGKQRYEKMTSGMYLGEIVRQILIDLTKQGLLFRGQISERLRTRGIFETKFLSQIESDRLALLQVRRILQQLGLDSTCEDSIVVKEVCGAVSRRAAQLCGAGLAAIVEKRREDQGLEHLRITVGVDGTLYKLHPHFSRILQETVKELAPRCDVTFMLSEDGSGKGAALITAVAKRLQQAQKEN
# [8] = biological target: Heat shock protein HSP 90-alpha (Homo sapiens, UniProt P07900); type: functional, organism-based
# [9] = biological target: T4, Rac GTPase-activating protein 1 (Homo sapiens, UniProt Q9H0H5); assay: MgcRacGAP GTPase-activating activity inhibitors, confirmation, biochemical, ADP Hunter fluorescence, primary and confirmatory (AID 624330); type: functional
# T4 sequence (Q9H0H5 whole entry): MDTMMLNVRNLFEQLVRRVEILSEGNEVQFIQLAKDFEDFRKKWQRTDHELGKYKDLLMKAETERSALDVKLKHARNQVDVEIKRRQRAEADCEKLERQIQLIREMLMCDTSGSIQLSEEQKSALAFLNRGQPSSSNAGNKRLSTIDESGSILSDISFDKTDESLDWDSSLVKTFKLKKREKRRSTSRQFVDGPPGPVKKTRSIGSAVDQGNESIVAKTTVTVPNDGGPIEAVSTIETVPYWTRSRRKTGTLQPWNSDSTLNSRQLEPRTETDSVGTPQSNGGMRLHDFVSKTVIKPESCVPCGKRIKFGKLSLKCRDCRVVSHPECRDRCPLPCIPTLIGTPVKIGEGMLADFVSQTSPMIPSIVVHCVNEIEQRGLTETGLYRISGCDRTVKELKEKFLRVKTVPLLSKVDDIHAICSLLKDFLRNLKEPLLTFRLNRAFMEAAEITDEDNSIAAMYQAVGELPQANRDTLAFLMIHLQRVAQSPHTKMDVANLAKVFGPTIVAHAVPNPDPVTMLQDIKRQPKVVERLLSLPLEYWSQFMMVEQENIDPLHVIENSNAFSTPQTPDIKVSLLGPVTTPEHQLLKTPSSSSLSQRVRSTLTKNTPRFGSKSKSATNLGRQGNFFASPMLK
# Genome polyprotein = Genome polyprotein (dengue virus type 2, UniProt P29990); assay: Dengue-2 NS5 methyltransferase inhibitors, primary screen, biochemical, confirmation dose response (AID 588689); type: functional
# Chain of Genome polyprotein (P29990 2492-3391 limits assumed): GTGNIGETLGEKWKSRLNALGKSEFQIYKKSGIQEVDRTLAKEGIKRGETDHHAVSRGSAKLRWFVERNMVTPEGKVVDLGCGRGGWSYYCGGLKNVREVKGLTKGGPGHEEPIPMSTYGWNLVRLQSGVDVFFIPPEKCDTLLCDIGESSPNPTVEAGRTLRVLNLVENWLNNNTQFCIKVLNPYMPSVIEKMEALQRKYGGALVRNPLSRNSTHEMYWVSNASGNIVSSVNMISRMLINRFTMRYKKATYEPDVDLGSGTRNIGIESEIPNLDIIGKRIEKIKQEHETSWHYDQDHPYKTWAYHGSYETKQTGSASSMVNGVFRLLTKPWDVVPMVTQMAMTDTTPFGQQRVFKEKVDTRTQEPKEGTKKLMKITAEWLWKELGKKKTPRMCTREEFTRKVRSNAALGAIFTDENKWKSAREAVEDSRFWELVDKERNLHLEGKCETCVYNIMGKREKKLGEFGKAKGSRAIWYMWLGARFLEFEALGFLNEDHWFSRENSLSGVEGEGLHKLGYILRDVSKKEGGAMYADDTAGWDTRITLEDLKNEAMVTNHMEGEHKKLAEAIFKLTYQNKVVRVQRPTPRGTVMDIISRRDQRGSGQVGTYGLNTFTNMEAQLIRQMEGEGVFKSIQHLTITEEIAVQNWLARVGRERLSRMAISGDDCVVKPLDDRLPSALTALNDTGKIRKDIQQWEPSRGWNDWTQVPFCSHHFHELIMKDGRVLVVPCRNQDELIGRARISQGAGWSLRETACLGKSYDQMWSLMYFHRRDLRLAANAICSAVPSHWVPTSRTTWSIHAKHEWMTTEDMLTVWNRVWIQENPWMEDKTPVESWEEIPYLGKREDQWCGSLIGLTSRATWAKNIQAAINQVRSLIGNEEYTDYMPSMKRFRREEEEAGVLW
# [10] = biological target: T5, Polyadenylate-binding protein 1 (Homo sapiens, UniProt P11940); assay: PABP1 MLLE–PAM2 binding inhibitor potency, dose response, biochemical, fluorescence polarization, FITC-PAM2 peptide (AID 602259); type: functional; settings: read-out: IC50_Mean
# T5 sequence (P11940 whole entry, the tested form may be a part): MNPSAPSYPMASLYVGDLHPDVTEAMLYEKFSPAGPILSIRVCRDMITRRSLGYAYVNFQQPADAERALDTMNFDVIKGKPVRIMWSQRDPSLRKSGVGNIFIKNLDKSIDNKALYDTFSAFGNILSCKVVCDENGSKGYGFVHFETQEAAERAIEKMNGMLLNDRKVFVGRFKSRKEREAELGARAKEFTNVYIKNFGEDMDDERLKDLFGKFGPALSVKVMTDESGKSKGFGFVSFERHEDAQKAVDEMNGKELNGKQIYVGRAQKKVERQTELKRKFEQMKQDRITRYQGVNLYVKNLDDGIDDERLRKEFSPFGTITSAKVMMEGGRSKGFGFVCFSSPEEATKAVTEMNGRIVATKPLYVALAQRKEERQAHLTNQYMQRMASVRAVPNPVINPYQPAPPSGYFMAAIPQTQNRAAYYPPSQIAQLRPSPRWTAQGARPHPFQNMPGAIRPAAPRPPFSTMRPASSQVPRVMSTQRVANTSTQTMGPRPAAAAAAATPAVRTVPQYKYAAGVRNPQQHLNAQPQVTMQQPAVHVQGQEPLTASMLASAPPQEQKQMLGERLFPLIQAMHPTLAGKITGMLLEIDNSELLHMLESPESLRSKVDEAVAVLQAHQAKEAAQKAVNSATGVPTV
# CHO = assay: cytotoxicity in TLR9-MyD88 CHO cells, dose response, cytotoxicity control for TLR9-MyD88 binding inhibitor project, cell-based, luminescence (AID 588339); type: functional, hamster; settings: Cricetulus griseus;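 also: CHO cells stably coexpressing TLR9 and MyD88 fusions from primary screen; compound exposure lasted 48 hours before viability readout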
# [11] = biological target: T6, Histone-lysine N-methyltransferase NSD2 (Homo sapiens, UniProt O96028); type: biochemical
# T6 sequence (O96028 whole entry): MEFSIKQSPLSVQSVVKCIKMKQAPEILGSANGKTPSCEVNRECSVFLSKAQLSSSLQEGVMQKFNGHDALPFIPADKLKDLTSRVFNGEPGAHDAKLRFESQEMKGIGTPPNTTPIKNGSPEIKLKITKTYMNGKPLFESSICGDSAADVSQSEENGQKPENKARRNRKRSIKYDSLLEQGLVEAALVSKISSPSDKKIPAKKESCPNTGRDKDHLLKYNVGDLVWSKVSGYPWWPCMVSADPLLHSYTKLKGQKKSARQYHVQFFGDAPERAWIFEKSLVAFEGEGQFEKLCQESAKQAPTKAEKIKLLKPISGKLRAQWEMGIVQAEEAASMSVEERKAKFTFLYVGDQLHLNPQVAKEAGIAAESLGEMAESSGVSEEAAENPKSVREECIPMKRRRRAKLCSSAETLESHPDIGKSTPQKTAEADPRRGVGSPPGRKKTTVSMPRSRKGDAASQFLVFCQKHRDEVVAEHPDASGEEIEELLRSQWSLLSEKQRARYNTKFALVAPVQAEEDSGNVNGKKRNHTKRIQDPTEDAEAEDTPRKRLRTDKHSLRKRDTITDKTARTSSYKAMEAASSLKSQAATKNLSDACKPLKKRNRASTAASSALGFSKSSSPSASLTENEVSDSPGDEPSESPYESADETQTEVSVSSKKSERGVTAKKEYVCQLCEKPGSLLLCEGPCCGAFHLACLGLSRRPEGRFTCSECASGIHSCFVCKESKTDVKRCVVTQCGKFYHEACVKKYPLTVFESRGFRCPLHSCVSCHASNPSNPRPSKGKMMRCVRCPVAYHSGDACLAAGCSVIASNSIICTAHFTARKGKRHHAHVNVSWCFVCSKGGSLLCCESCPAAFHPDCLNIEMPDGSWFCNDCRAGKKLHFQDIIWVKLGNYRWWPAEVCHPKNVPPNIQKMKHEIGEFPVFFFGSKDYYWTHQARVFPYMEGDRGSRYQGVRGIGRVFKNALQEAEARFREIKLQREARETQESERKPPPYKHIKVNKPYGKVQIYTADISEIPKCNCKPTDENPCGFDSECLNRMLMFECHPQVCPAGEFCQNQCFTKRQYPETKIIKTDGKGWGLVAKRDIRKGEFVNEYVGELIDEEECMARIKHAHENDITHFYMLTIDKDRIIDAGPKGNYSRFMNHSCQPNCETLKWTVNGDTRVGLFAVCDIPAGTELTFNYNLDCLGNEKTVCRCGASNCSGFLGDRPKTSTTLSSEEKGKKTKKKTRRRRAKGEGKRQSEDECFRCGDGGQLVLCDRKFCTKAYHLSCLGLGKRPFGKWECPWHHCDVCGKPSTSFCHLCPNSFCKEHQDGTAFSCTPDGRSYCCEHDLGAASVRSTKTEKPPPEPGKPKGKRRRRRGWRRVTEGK
# Beta-galactosidase = Beta-galactosidase (Escherichia coli, UniProt Q8VNN2); assay: beta-galactosidase enzyme inhibitors and activators, dose response, artefact control for CCR6 antagonist project, biochemical, E. coli enzyme, set 3 (AID 504712); type: functional
# [12] = biological target: Glucose-6-phosphate 1-dehydrogenase (Homo sapiens, UniProt P11413); assay: human G6PD enzyme inhibitors, dose response, selectivity assay for P. falciparum G6PD inhibitor project, biochemical, fluorescence (AID 504792); type: functional
# [13] = biological target: T5, Polyadenylate-binding protein 1; assay: PABP1 MLLE–PAM2 interaction inhibitors, dose response, miRNA deadenylation inhibitor project, biochemical, fluorescence polarization, Cy5-PAM2 peptide, secondary (AID 602260); type: functional; settings: read-out: IC50_Mean
# Beta Lactamase = Beta Lactamase (Pseudomonas aeruginosa, UniProt Q932Y6); assay: beta-lactamase reporter inhibitor potency, dose response, artefact control for TLR9-MyD88 binding inhibitor project, BLA reporter cells, FRET fluorescence (AID 588341); type: cell-based;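 also: cell based assay in CHO-K1 cells stably expressing beta-lactamase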
# Chain of Beta Lactamase (Q932Y6 whole entry): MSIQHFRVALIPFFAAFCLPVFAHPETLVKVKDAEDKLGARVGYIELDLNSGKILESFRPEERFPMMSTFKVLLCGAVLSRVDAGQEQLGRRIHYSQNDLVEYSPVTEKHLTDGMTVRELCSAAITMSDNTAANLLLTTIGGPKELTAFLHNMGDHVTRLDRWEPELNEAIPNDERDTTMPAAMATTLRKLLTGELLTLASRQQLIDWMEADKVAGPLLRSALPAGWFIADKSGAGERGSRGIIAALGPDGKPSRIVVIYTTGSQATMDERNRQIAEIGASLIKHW
# [14] = biological target: Female germline-specific tumor suppressor gld-1 (Caenorhabditis elegans, UniProt Q17339); assay: inhibitors of GLD-1 binding to TGE RNA, dose response, biochemical, fluorescence polarization, C. elegans (AID 2802);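 also: fluorescence polarization of labeled TGE RNA bound by purified gld-1 protein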
# [15] = biological target: T7, Zinc finger protein mex-5 (Caenorhabditis elegans, UniProt Q9XUB2); assay: MEX-5/TCR-2 RNA interaction inhibitors, dose response, biochemical, C. elegans, fluorescence polarization (AID 1960)
# T7 sequence (Q9XUB2 whole entry): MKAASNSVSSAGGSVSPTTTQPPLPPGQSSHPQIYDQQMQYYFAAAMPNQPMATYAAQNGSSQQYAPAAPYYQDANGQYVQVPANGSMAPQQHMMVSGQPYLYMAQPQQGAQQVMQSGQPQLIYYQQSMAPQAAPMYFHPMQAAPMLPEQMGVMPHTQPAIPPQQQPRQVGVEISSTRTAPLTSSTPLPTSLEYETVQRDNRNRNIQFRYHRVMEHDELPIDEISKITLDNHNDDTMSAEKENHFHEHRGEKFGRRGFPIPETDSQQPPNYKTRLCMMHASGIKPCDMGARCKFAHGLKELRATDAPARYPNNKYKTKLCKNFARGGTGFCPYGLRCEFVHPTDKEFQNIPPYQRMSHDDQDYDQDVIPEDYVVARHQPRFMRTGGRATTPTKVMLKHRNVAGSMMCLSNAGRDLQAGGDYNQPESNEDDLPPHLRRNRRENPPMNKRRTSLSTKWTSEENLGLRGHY
# Protein Rev = Protein Rev (Human immunodeficiency virus type 1 group M subtype B (isolate HXB2)(HIV-1), UniProt P04618); assay: inhibitors of Rev binding to RRE RNA, dose response, biochemical, fluorescence polarization, HIV-1 (AID 434976); set-up: species or system Human immunodeficiency virus 1
# Chain of Protein Rev (P04618 whole entry, the tested form may be a part): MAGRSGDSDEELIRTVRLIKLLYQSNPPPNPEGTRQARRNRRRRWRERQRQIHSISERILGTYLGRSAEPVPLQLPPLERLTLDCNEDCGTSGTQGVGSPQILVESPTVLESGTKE
# [16] = biological target: T8, RNA-binding protein pos-1 (Caenorhabditis elegans, UniProt G5EF15); assay: inhibitors of POS-1/mex-3 RNA binding, dose response, biochemical, fluorescence polarization (AID 1964);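 also: purified POS-1 fused to maltose binding protein made in E. coli; potency of compounds blocking POS-1 binding to fluorescent RNA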
# T8 sequence (G5EF15 whole entry): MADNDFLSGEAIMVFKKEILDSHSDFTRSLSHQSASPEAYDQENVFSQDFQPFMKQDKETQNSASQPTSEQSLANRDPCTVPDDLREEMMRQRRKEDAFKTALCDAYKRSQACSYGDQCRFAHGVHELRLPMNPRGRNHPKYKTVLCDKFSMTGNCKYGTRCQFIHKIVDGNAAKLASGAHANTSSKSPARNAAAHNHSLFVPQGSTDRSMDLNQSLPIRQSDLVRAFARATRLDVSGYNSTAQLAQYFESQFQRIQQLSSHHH
# T1 sequence (P63165 whole entry): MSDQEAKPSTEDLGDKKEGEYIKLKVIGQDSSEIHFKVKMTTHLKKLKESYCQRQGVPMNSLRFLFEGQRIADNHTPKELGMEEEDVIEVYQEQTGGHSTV
structure (smiles),measurement,setting,value
O=C(O)c1ccccc1/C=N/NC(=O)c1cc(-c2ccco2)nc2ccccc12,IC50,[1],> 66.6 µM (inactive)
same,IC50,[2],9.51 µM (active)
same,IC50,Albumin,> 94.1 µM (inactive)
same,IC50,[3],2.54 µM (active)
same,IC50,NS3,7.35 µM (active)
same,IC50,[4],5.4 µM (active)
O=C(Nc1cccnc1)Nc1cccc(Cl)c1,EC50,[5],18.3 µM (active)
COC(=O)c1cc(N2C(=O)C3C(C2=O)C2(C)C=CC3(C)O2)ccc1Cl (centres undefined),IC50,[6],> 56.8 µM (inactive)
same,IC50,[7],> 56.8 µM (inactive)
O=C(CSc1nnc(CCCN2C(=O)c3cccc4cccc(c34)C2=O)n1-c1ccccc1)N1CCN(CCO)CC1,IC50,Hexokinase HKDC1,9.27 µM (active)
O=C(NCc1ccc(Cl)cc1Cl)Nc1ccc(Cl)nc1,EC50,[5],3.74 µM (active)
O=C1C(Cl)=C(NCCc2ccccc2)C(=O)c2ccccc21,AC50,[8],3.38 µM (active)
same,IC50,[9],218 µM (active)
same,IC50,Hexokinase HKDC1,7.92 µM (active)
same,IC50,Genome polyprotein,9.15 µM (active)
same,IC50,[10],> 66 µM (inactive)
same,IC50,CHO,1.58 µM (active)
same,AC50,[11],3.78 µM (active)
same,IC50,Beta-galactosidase,> 66.6 µM (inactive)
same,IC50,[12],19.7 µM (active)
same,IC50,[13],> 66 µM (inactive)
same,IC50,Beta Lactamase,17.7 µM (inactive)
O=C1c2ccccc2C(=O)c2c1cccc2N(CCO)CCO,IC50,[14],5.51 µM (active)
same,IC50,Genome polyprotein,28.8 µM (active)
same,EC50,[15],17 µM (active)
same,IC50,[10],47.7 µM (inactive)
same,IC50,Protein Rev,8.44 µM (active)
same,EC50,[16],19.6 µM (active)
same,IC50,[13],> 66 µM (inactive)
